# Tests used:
# CYP11A1 [1] = molecular target: T1, CYP11A1 (Homo sapiens, UniProt P05108); experiment: Testosterone synthesis inhibition in NCI-H295R cells (testosterone ELISA of culture supernatant); format: cell-based; details: 24 hours incubation, testosterone in culture supernatant by ELISA
# T1 construct: host or cells: NCI-H295R human adrenocortical cancer cells
# T1 sequence (P05108 40-521): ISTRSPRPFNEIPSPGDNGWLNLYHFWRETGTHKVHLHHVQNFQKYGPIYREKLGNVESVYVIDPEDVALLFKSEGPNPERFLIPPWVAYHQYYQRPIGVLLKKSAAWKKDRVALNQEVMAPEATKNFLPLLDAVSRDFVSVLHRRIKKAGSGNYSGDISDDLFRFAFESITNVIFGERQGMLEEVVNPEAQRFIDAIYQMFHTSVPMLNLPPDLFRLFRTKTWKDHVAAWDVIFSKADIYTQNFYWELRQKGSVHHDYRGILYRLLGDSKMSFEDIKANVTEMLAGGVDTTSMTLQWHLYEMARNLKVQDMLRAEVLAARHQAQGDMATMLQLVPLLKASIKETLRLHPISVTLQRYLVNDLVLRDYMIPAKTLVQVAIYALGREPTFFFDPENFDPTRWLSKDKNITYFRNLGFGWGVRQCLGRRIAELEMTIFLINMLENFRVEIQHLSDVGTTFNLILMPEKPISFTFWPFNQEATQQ
# Experimental: The ability of different compounds to inhibit testosterone biosynthesis was determined by detecting the concentration of testosterone (Abnova testosterone ELISA kit, KA6502) using enzyme-linked immunosorbent assay (ELISA), so as to detect the ability of the compounds to inhibit CYP11A1. In the experiment, similarly, the human adrenocortical cancer cell line NCI-H295R (Procell, CL-0399) was also used as an enzyme source. The compounds were added during NCI-H295R cell culture. After incubation, the concentration of testosterone in the culture supernatant was determined.
# 95 µl of NCI-H295R cells were taken and cultured overnight with a specialized cell culture medium (Procell, CM-0399) in a 96-well culture plate in a cell incubator at 37°C and 5% CO2. 5 µl/well of a DMSO (Sigma, D8418) solution of the compounds to be tested at different concentrations was then added, followed by continued incubation for 24 hours. The final concentrations of the compounds to be tested were 1000 nM, 333.33 nM, 111.11 nM, 37.04 nM, 12.35 nM, 4.12 nM, 1.37 nM, 0.46 nM, and 0 nM. After the incubation was complete, the cells were centrifuged, 80 µl/well of the cell culture supernatant was obtained, and the concentration of testosterone therein was determined by ELISA method. During ELISA detection, a testosterone standard was used to generate a standard curve. The experiment was carried out with replicate wells. The ELISA well plate had been coated with an anti-testosterone monoclonal antibody. In ELISA plate strips, 25 µl/well of the culture supernatant or standard solution or reference substance was added, followed by 200 µl of a testosterone-HRP complex solution, and the plate was incubated for 1 hour at room temperature on a plate shaker (QILINBEIER, QB-9002) at 200 rpm. Then, the plate was washed three times with a cleaning solution, with 300 µl each time, and patted dry on absorbent paper. 200 µl of a TMB substrate was added. The plate was incubated on the plate shaker for 15 minutes at room temperature, and 100 µl of a stop solution was then added. The absorbance was measured at 450 nm by a microplate reader (PerkinElmer, 2105). The IC50 value was calculated by using GraphPad Prism software. [formula]
# CYP11A1 [2] = molecular target: T1, CYP11A1; experiment: Pregnenolone synthesis inhibition in NCI-H295R cells (pregnenolone ELISA of culture supernatant); format: cell-based; details: 24 hours incubation, pregnenolone in culture supernatant by ELISA
# From the text: Conversion of cholesterol into pregnenolone is a first rate-limiting step in the synthesis of all steroid hormones in vertebrates. This conversion reaction involves a two-step continuous monooxygenation reaction catalyzed by the unique cytochrome P450scc (CYP11A) to produce C22-hydroxycholesterol and C20,C22-dihydroxycholesterol in order, followed by CYP11A1-catalyzed breakage of a C20-C22 carbon-carbon single bond in C20,C22-dihydroxycholesterol to produce one molecule of pregnenolone and one molecule of 4-methylvaleraldehyde. Therefore, the inhibitory effect of a compound on CYP11A1 was identified by detecting the ability of the compound to inhibit pregnenolone synthesis.
# The ability of different compounds to inhibit pregnenolone biosynthesis was determined by detecting the concentration of pregnenolone (Abnova pregnenolone ELISA kit, KA1912) using enzyme-linked immunosorbent assay (ELISA), so as to detect the ability of the compounds to inhibit CYP11A1. […] In order to determine the half-maximal inhibitory concentrations (IC50) of CYP11A1 inhibition by different compounds, the compounds were added during NCI-H295R cell culture, and after incubation, the concentration of pregnenolone in the culture supernatant was determined.
# 95 µl of NCI-H295R cells were taken and cultured overnight with a specialized cell culture medium (Procell, CM-0399) in a 96-well culture plate in a cell incubator at 37°C and 5% CO2. 5 µl/well of a DMSO (Sigma, D8418) solution of the compounds to be tested at different concentrations was then added, followed by continued incubation for 24 hours. The final concentrations of the compounds to be tested were 1000 nM, 333.33 nM, 111.11 nM, 37.04 nM, 12.35 nM, 4.12 nM, 1.37 nM, 0.46 nM, and 0 nM. After the incubation was complete, the cells were centrifuged, 80 µl/well of the cell culture supernatant was obtained and 1 : 8 diluted with the cell culture medium, and the concentration of pregnenolone therein was then determined by ELISA method. During ELISA detection, a pregnenolone standard was used to generate a standard curve. The experiment was carried out with replicate wells. The ELISA well plate had been coated with an anti-pregnenolone rabbit polyclonal antibody. In ELISA plate strips, 50 µl/well of the diluted culture supernatant or standard solution or reference substance was added, followed by 100 µl of a pregnenolone-HRP complex solution, and the plate was incubated for 1 hour at room temperature on a plate shaker (QILINBEIER, QB-9002) at 200 rpm. Then, the plate was washed three times with a cleaning solution, with 300 µl each time, and patted dry on absorbent paper. 150 µl of a TMB substrate was added. The plate was incubated on the plate shaker for 10-15 minutes at room temperature, and 50 µl of a stop solution was then added. The absorbance was measured at 450 nm by a microplate reader (PerkinElmer, 2105). The IC50 value was calculated by using GraphPad Prism software. [formula]
# [3] = Pharmacokinetic evaluation in ICR mice after intragastric administration (plasma, LC/MS/MS); format: in vivo; details: mouse, po, male ICR mice, i.g., 20 mg/kg; for AUC(0-t): read-out: Area under the curve AUC0-t; for half-life: read-out: Half-life T1/2 (converted); for Cmax: read-out: Plasma concentration Cmax
# Experimental: Taking ICR mice as test animals, the drug concentration in plasma of ICR mice was determined by LC/MS/MS method at different times after intragastric administration (i.g.) with the compound of the present disclosure. The pharmacokinetic behavior of the compound of the present disclosure in ICR mice was studied and the pharmacokinetic characteristics thereof were evaluated.
# 27 male ICR mice were taken and randomly divided into three groups. The mice were provided by JOINN Laboratories (Suzhou) Co., Ltd. Before administration, the mice were fasted overnight for at least 12 hours. During the fasting and experiment, the drinking water was normal saline.
# A certain amount of the compound to be tested was taken, and the test sample prepared with a final concentration of 2 mg/mL was taken for oral administration. The preparation solvent was 0.5% Tween 80 in a 0.5% methylcellulose aqueous solution. After the preparation was complete, a 1N hydrochloric acid aqueous solution was added for adjustment to a clear solution (pH 4-5).
# The dosage was 20.0 mg/kg and the dosage volume was 10.0 ml/kg.
# At 15 min, 30 min, 1 h, 2 h, 4 h, 6 h, 8 h, 10 h, and 24 h after administration, at least 0.2 mL was taken from the vein (3 animals at each time point) and placed in an EDTA-K2 anticoagulation test tube. The blood sample was collected and then placed in a labeled ice-water bath centrifuge tube, and the plasma was quickly separated by centrifugation. The centrifugation conditions were as follows: 4000 revolutions/minute, 10 minutes, and 4°C. The plasma was stored at -40°C or lower for later testing. Feed supply was resumed 4 hours after administration.
# Determination of the content of the compound to be detected in the plasma of ICR mice: After the plasma sample was thawed at room temperature, 50 µL was taken and added to 300 µL of (200 ng/mL, acetonitrile, terfenadine) internal standard, the mixture was vortexed and uniformly mixed for 1 min and then centrifuged at 4°C at 15400 g for 10 min. The supernatant was taken and injected for LC/MS/MS analysis.
# The main pharmacokinetic parameters, such as AUC, Cmax and t1/2, were calculated by non-compartmental analysis (NCA) method using WinNonlin software.
Structure (SMILES),IC50 (CYP11A1 [1]) [nM],IC50 (CYP11A1 [2]) [nM],AUC(0-t) [3] [ng·h/mL],half-life [3] [h],Cmax [3] [ng/mL]
"CCn1c(CN2Cc3ccccc3C2)ccc(OCC2CCN(S(=O)(=O)O)CC2)c1=O [Compound 31, 4-(((1-ethyl-6-(isoindolin-2-ylmethyl)-2-oxo-1,2-dihydropyridin-3-yl)oxy)methyl)piperidine-1-sulfonic acid]",> 1000,–,–,–,–
"CCn1c(CN2Cc3ccccc3C2)ccc(OCC2CCN(S(N)(=O)=O)CC2)c1=O [Compound 28, 4-(((1-ethyl-6-(isoindolin-2-ylmethyl)-2-oxo-1,2-dihydropyridin-3-yl)oxy)methyl)piperidine-1-sulfonamide]",7.02,1.18,13600,1.22,5440
"CS(=O)(=O)N1CCC(COc2coc(CN3Cc4ccccc4C3)cc2=O)CC1 [Comparative Example 1, reference compound]",–,–,4330,1.87,7950
"Cn1c(CN2Cc3ccccc3C2)ccc(OCC2CCN(S(C)(=O)=O)CC2)c1=O [Compound 1, 6-(isoindolin-2-ylmethyl)-1-methyl-3-((1-(methylsulfonyl)piperidine-4-yl)methoxy)pyridin-2(1H)-one]",17.7,4.15,9950,0.708,9720
"[2H]C([2H])([2H])n1c(CN2Cc3ccccc3C2)ccc(OCC2CCN(S(=O)(=O)C(F)(F)F)CC2)c1=O [Compound 16, 6-(isoindolin-2-ylmethyl)-1-(methyl-d3)-3-((1-((trifluoromethyl)sulfonyl)piperidine-4-yl)methoxy)pyridin-2(1H)-one]",40.2,1.03,–,–,–

# Further compounds by falling IC50 (CYP11A1 [1]), results first:
IC50 (CYP11A1 [1]) [nM],IC50 (CYP11A1 [2]) [nM],AUC(0-t) [3] [ng·h/mL],half-life [3] [h],Cmax [3] [ng/mL],Structure (SMILES)
4.04,0.648,–,–,–,"CCn1c(CN2Cc3ccccc3C2)ccc(OCC2CCN(S(=O)(=O)NS(N)(=O)=O)CC2)c1=O [Compound 30, 4-(((1-ethyl-6-(isoindolin-2-ylmethyl)-2-oxo-1,2-dihydropyridin-3-yl)oxy)methyl)-N-sulfamoylpiperidine-1-sulfonamide]"
3.78,1.56,–,–,–,"CCn1c(CN2Cc3ccccc3C2)ccc(OCC2CCN(S(C)(=O)=O)CC2)c1=O [Compound 25, 1-ethyl-6-(isoindolin-2-ylmethyl)-3-((1-(methylsulfonyl)piperidine-4-yl)methoxy)pyridin-2(1H)-one]"
2.45,0.7,–,–,–,"CCn1c(CN2Cc3ccccc3C2)ccc(OCC2CCN(S(=O)(=O)C3CC3)CC2)c1=O [Compound 26, 3-((1-(cyclopropylsulfonyl)piperidine-4-yl)methoxy)-1-ethyl-6-(isoindolin-2-ylmethyl)pyridin-2(1H)-one]"
